According to patent publication US5093331A, “Labdane derivatives, a process for their preparation, and their use as medicaments” (Hoechst Aktiengesellschaft, priority 1987, dated 1992):
Values after ≈ are worked out from the molar mass of the structure shown. Where a name gives a salt, the structure may show the parent alone.

Legend:
[1] = system: Guineapig atrium; test: Positive inotropic effect, isolated electrically stimulated guineapig atrium; assay type: cell-based; conditions: Cavia porcellus, 32° C., contractility recorded 7 to 10 minutes
Experimental: Positive inotropic effect
The following method was used:
Guineapigs of both sexes and weighing 400 g are sacrificed, and the heart is removed and placed in Ringer's solution at room temperature. Both the left and the right atria are then isolated and fixed in an organ holder, and the preparation is placed in a bath containing Ringer's solution and maintained at a temperature of 32° C. A mixture of 95% O2 and 5% CO2 is then bubbled through the organ bath and the atrium is electrically stimulated. The compound to be tested is dissolved in water to give a solution of known concentration and is added to the bath. The contractility of the atrium is recorded for 7 to 10 minutes on a Nihon Kohden 4-channel pen recorder with an isometric strain gage. The activity is expressed on the basis of the resulting data as the EC50.
The results obtained in this model are indicated for representative compounds of the invention in Tables III and IV which follow: […]

[2] = system: Blood pressure in cats; test: Test for an antihypertensive effect: blood pressure in cats; assay type: in vivo; conditions: anesthetized cats, formula Ia
Experimental: Test for an antihypertensive effect
Cats of both sexes and weighing 3 to 4 kg are anesthetized with ether and maintained under chloralose anesthesia (70 mg/kg i.v.). Cannulas are placed in the femoral artery and femoral vein to record the blood pressure and to administer the medicament, respectively. The blood pressure in the femoral artery is recorded via a Statham P 23 Db pressure transducer on a Nihon-Kohden pen recorder for physiological purposes. The compound to be tested is dissolved in distilled water and administered intravenously. The fall in blood pressure and the duration of the effect lowering blood pressure are noted.

EC50 ([1]; Table IV, formula Ib) [µg/mL] | EC50 ([1]; Table III, formula Ia) [µg/mL] | Structure (SMILES) | other results
0.006 (≈ 0.00986 µM) |  | C=C[C@@]1(C)CC(=O)[C@]2(O)[C@@]3(C)[C@@H](O)CCC(C)(C)[C@@H]3[C@H](OC(=O)COC(=O)CN3CCN(C)CC3)[C@H](OC(C)=O)[C@@]2(C)O1 | 
 |  | C=C[C@@]1(C)CC(=O)[C@]2(O)[C@@]3(C)[C@@H](O)CCC(C)(C)[C@@H]3[C@H](O)[C@H](OC(=O)COC(=O)CN3CCOCC3)[C@@]2(C)O1 [drawing 62] | duration (of fall of B.P.) ([2]; 0.1 mg/kg i.v.): 60 min; fall of B.P. ([2]; 0.1 mg/kg i.v.): 30 mm Hg
0.086 (≈ 0.142 µM) |  | C=C[C@@]1(C)CC(=O)[C@]2(O)[C@@]3(C)[C@@H](O)CCC(C)(C)[C@@H]3[C@H](OC(=O)COC(=O)CCN3CCCCC3)[C@H](OC(C)=O)[C@@]2(C)O1 | 
 |  | C=C[C@@]1(C)CC(=O)[C@]2(O)[C@@]3(C)[C@@H](O)CCC(C)(C)[C@@H]3[C@H](O)[C@H](OC(=O)COC(=O)CNC(=O)OC(C)(C)C)[C@@]2(C)O1 [1 NHBoC] | duration (of fall of B.P.) ([2]; 0.3 mg/kg i.v.): 35 min; fall of B.P. ([2]; 0.3 mg/kg i.v.): 30 mm Hg
 |  | C=C[C@@]1(C)CC(=O)[C@]2(O)[C@@]3(C)[C@@H](O)CCC(C)(C)[C@@H]3[C@H](O)[C@H](OC(=O)COC(=O)CN3CCCCC3)[C@@]2(C)O1 | duration (of fall of B.P.) ([2]; 0.1 mg/kg i.v.): 40 min; fall of B.P. ([2]; 0.1 mg/kg i.v.): 25 mm Hg
 | 1.42 (≈ 2.56 µM) | C=C[C@@]1(C)CC(=O)[C@]2(O)[C@@]3(C)[C@@H](O)CCC(C)(C)[C@@H]3[C@H](O)[C@H](OC(=O)COC(=O)CN3CCOCC3)[C@@]2(C)O1 [drawing 51] | 
 |  | C=C[C@@]1(C)CC(=O)[C@]2(O)[C@@]3(C)[C@@H](O)CCC(C)(C)[C@@H]3[C@H](O)[C@H](OC(=O)COC(=O)CN3CCC(c4ccccc4)CC3)[C@@]2(C)O1 [drawing 60] | duration (of fall of B.P.) ([2]; 1 mg/kg i.v.): 45 min; fall of B.P. ([2]; 1 mg/kg i.v.): 60 mm Hg
 |  | C=C[C@@]1(C)CC(=O)[C@]2(O)[C@@]3(C)[C@@H](O)CCC(C)(C)[C@@H]3[C@H](O)[C@H](OC(=O)COC(=O)CN3CCN(C(=O)OCC)CC3)[C@@]2(C)O1 [drawing 63] | duration (of fall of B.P.) ([2]; 0.3 mg/kg i.v.): 30 min; fall of B.P. ([2]; 0.3 mg/kg i.v.): 35 mm Hg
 |  | C=C[C@@]1(C)CC(=O)[C@]2(O)[C@@]3(C)[C@@H](O)CCC(C)(C)[C@@H]3[C@H](O)[C@H](OC(=O)COC(=O)CNc3cc(OC)c(OC)c(OC)c3)[C@@]2(C)O1 [drawing 64] | duration (of fall of B.P.) ([2]; 1 mg/kg i.v.): 60 min; fall of B.P. ([2]; 1 mg/kg i.v.): 80 mm Hg
0.058 (≈ 0.102 µM) |  | C=C[C@@]1(C)CC(=O)[C@]2(O)[C@@]3(C)[C@@H](O)CCC(C)(C)[C@@H]3[C@H](OC(=O)COC(=O)CCN(C)C)[C@H](OC(C)=O)[C@@]2(C)O1 [2 OAc N(CH3)2] | 
0.04 (≈ 0.0674 µM) |  | C=C[C@@]1(C)CC(=O)[C@]2(O)[C@@]3(C)[C@@H](O)CCC(C)(C)[C@@H]3[C@H](OC(=O)COC(=O)CN3CCCCC3)[C@H](OC(C)=O)[C@@]2(C)O1 | 
 | 0.18 (≈ 0.287 µM) | C=C[C@@]1(C)CC(=O)[C@]2(O)[C@@]3(C)[C@@H](O)CCC(C)(C)[C@@H]3[C@H](O)[C@H](OC(=O)COC(=O)CN3CCC(c4ccccc4)CC3)[C@@]2(C)O1 [drawing 49] | 
 | 0.545 (≈ 0.839 µM) | C=C[C@@]1(C)CC(=O)[C@]2(O)[C@@]3(C)[C@@H](O)CCC(C)(C)[C@@H]3[C@H](O)[C@H](OC(=O)COC(=O)CNc3cc(OC)c(OC)c(OC)c3)[C@@]2(C)O1 [drawing 48] | 
 |  | C=C[C@@]1(C)CC(=O)[C@]2(O)[C@@]3(C)[C@@H](O)CCC(C)(C)[C@@H]3[C@H](O)[C@H](OC(=O)COC(=O)CN3CCN(C)CC3)[C@@]2(C)O1 [drawing 61] | duration (of fall of B.P.) ([2]; 0.1 mg/kg i.v.): 40 min; fall of B.P. ([2]; 0.1 mg/kg i.v.): 20 mm Hg
 |  | C=C[C@@]1(C)CC(=O)[C@]2(O)[C@@]3(C)[C@@H](O)CCC(C)(C)[C@@H]3[C@H](O)[C@H](OC(=O)COC(=O)CN(C(C)C)C(C)C)[C@@]2(C)O1 [1 NH[CH(CH3)2]2] | duration (of fall of B.P.) ([2]; 0.1 mg/kg i.v.): 125 min; fall of B.P. ([2]; 0.1 mg/kg i.v.): 25 mm Hg
0.072 (≈ 0.121 µM) |  | C=C[C@@]1(C)CC(=O)[C@]2(O)[C@@]3(C)[C@@H](O)CCC(C)(C)[C@@H]3[C@H](OC(=O)COC(=O)CN3CCOCC3)[C@H](OC(C)=O)[C@@]2(C)O1 | 
 | > 1 | C=C[C@@]1(C)CC(=O)[C@]2(O)[C@@]3(C)[C@@H](O)CCC(C)(C)[C@@H]3[C@H](O)[C@H](OC(=O)COC(=O)CN3CCN(C(=O)OCC)CC3)[C@@]2(C)O1 [drawing 52] | 
 | 0.1 (≈ 0.176 µM) | C=C[C@@]1(C)CC(=O)[C@]2(O)[C@@]3(C)[C@@H](O)CCC(C)(C)[C@@H]3[C@H](O)[C@H](OC(=O)COC(=O)CN3CCN(C)CC3)[C@@]2(C)O1 [drawing 50] | 
0.02 (≈ 0.0371 µM) |  | C=C[C@@]1(C)CC(=O)[C@]2(O)[C@@]3(C)[C@@H](O)CCC(C)(C)[C@@H]3[C@H](OC(=O)COC(=O)CCN)[C@H](OC(C)=O)[C@@]2(C)O1 [2 OAc NH2] | 

Structure (SMILES) | EC50 ([1]; Table IV, formula Ib) [µg/mL] | EC50 ([1]; Table III, formula Ia) [µg/mL] | other results
C=C[C@@]1(C)CC(=O)[C@]2(O)[C@@]3(C)[C@@H](O)CCC(C)(C)[C@@H]3[C@H](O)[C@H](OC(=O)COC(=O)CN(CC)CC)[C@@]2(C)O1 [1 N(C2 H5)2, 8,13-Epoxy-7β-(2-N,N-diethylglycinyloxyacetoxy)-1α,6β,9α-trihydroxylabd-14-en-11-one hydrochloride] |  | 0.03 | 
C=C[C@@]1(C)CC(=O)[C@]2(O)[C@@]3(C)[C@@H](O)CCC(C)(C)[C@@H]3[C@H](O)[C@H](OC(=O)COC(=O)CN(C(C)C)C(C)C)[C@@]2(C)O1 [1 N[CH(CH3)2]2, 8,13-Epoxy-7β-(2-diisopropylaminoacetoxyacetoxy)-1α, 6β,9α-trihydroxylabd-14-en-11-one hydrochloride sesquihydrate] |  | 1 | 
C=C[C@@]1(C)CC(=O)[C@]2(O)[C@@]3(C)[C@@H](O)CCC(C)(C)[C@@H]3[C@H](OC(=O)COC(=O)CN(CC)CC)[C@H](OC(C)=O)[C@@]2(C)O1 [1 OAc N(C2 H5)2, 7β-Acetoxy-6β-(2-N,N-diethylaminoacetoxyacetoxy)-8,13-epoxy-1α,9α-dihydroxylabd-14-en-11-one hydrochloride sesquihydrate] | 0.03 |  | 
C=C[C@@]1(C)CC(=O)[C@]2(O)[C@@]3(C)[C@@H](O)CCC(C)(C)[C@@H]3[C@H](OC(=O)COC(=O)CN)[C@H](O)[C@@]2(C)O1 [1 OH NH2, 8,13-epoxy-6β-(2-glycinyloxyacetoxy)-1α,7β, 9α-trihydroxylabd-14-en-11-one hydrochloride] | > 10 |  | 
C=C[C@@]1(C)CC(=O)[C@]2(O)[C@@]3(C)[C@@H](O)CCC(C)(C)[C@@H]3[C@H](OC(=O)COC(=O)CN(C(C)C)C(C)C)[C@H](OC(C)=O)[C@@]2(C)O1 [1 OAc N[CH(CH3)2]2, 7β-Acetoxy-6β-(2-N,N-diisopropylaminoacetoxyacetoxy)-8,13-epoxy-1α,9α-dihydroxylabd-14-en-11-one hydrochloride monohydrate] | 0.14 |  | 
C=C[C@@]1(C)CC(=O)[C@]2(O)[C@@]3(C)[C@@H](O)CCC(C)(C)[C@@H]3[C@H](O)[C@H](OC(=O)COC(=O)CN)[C@@]2(C)O1 [1 NH2, 8,13-Epoxy-7β-(2-glycinyloxyacetoxy)-1α,6β,9α-trihydroxylabd-14-en-11-one monohydrochloride] |  | 0.1 | duration (of fall of B.P.) ([2]; 0.1 mg/kg i.v.): 120 min; fall of B.P. ([2]; 0.1 mg/kg i.v.): 20 mm Hg
C=C[C@@]1(C)CC(=O)[C@]2(O)[C@@]3(C)[C@@H](O)CCC(C)(C)[C@@H]3[C@H](OC(=O)COC(=O)CN)[C@H](OC(C)=O)[C@@]2(C)O1 [1 OAc NH2, 7β-acetoxy-8,13-epoxy-6β-(2-glycinyloxyacetoxy)-1α,9α-dihydroxylabd-14-en-11-one hydrochloride] | 0.008 |  | 
